Source: ChEMBL document CHEMBL3526061, “Glucuronidation of edaravone by human liver and kidney microsomes: biphasic kinetics and identification of UGT1A9 as the major UDP-glucuronosyltransferase isoform” (Drug Metab Dispos, 2012)

What was measured:
Format in all cases: ADME
[1] = target: T1, UDP-glucuronosyltransferase 1A6 (Homo sapiens, UniProt P19224); experiment: Activity of human recombinant UGT1A6 expressed in insect cells assessed as enzyme mediated glucuronidation at 12.5 uM by LC-MS/MS method
T1 sequence (P19224 whole entry): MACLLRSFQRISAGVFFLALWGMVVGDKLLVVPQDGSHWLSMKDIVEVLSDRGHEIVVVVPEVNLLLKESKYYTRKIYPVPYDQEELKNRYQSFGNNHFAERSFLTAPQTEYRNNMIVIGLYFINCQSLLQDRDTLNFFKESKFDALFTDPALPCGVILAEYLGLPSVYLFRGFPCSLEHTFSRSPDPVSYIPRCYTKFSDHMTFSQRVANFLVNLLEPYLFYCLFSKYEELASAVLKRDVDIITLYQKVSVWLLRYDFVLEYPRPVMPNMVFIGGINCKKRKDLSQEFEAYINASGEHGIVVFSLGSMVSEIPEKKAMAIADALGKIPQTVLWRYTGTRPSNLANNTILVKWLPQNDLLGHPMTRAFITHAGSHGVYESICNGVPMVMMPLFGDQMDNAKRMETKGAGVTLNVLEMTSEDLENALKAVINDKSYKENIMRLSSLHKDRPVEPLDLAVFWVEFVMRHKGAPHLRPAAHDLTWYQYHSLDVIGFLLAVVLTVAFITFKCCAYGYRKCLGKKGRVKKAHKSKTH

[2] = target: T2, UDP-glucuronosyltransferase 1A7 (Homo sapiens, UniProt Q9HAW7); experiment: Activity of human recombinant UGT1A7 expressed in insect cells assessed as enzyme mediated glucuronidation at 500 uM by LC-MS/MS method
T2 sequence (Q9HAW7 whole entry): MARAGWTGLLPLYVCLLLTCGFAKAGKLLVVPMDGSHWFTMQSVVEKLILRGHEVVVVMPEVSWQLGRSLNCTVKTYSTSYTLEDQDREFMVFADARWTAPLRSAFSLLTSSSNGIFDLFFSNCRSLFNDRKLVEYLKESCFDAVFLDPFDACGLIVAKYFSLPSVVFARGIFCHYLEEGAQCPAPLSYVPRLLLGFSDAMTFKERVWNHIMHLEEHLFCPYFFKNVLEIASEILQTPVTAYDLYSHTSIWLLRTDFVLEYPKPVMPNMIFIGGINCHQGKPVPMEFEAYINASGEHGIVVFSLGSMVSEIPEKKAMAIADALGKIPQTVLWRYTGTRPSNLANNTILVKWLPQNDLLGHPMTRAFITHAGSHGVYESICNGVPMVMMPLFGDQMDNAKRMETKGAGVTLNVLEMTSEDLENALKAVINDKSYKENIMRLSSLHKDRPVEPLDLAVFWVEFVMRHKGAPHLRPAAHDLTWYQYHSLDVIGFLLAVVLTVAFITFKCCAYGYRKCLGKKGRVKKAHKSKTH

Liver microsome [3] = experiment: Drug metabolism in human liver microsomes assessed as drug glucuronidation per mg tissue in presence of BSA by LC-MS/MS method
[4] = Drug metabolism in human kidney microsomes assessed as drug glucuronidation per mg tissue in presence of BSA by LC-MS/MS method
[5] = target: T3, UDP-glucuronosyltransferase 1A1 (Homo sapiens, UniProt P22309); experiment: Activity of human recombinant UGT1A1 expressed in insect cells assessed as enzyme mediated glucuronidation in presence of 10 to 50 uM estradiol by LC-MS/MS method
T3 sequence (P22309 whole entry): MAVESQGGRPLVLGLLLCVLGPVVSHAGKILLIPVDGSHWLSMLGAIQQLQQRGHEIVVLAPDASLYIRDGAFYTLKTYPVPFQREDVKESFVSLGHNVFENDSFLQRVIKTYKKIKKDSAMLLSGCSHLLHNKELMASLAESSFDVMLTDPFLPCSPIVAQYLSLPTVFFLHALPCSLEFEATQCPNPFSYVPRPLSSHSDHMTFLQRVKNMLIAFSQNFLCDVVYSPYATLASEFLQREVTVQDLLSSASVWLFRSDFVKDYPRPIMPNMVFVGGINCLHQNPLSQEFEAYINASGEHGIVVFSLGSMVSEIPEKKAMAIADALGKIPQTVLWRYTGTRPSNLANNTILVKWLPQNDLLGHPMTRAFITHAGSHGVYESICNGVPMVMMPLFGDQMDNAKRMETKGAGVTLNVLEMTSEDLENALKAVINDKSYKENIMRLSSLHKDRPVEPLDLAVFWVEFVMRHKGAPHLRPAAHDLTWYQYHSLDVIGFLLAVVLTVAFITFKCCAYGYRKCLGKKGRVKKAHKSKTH

[6] = target: T4, UDP-glucuronosyltransferase 2B17 (Homo sapiens, UniProt O75795); experiment: Activity of human recombinant UGT2B17 expressed in insect cells assessed as enzyme mediated glucuronidation at 12.5 uM by LC-MS/MS method
T4 sequence (O75795 whole entry): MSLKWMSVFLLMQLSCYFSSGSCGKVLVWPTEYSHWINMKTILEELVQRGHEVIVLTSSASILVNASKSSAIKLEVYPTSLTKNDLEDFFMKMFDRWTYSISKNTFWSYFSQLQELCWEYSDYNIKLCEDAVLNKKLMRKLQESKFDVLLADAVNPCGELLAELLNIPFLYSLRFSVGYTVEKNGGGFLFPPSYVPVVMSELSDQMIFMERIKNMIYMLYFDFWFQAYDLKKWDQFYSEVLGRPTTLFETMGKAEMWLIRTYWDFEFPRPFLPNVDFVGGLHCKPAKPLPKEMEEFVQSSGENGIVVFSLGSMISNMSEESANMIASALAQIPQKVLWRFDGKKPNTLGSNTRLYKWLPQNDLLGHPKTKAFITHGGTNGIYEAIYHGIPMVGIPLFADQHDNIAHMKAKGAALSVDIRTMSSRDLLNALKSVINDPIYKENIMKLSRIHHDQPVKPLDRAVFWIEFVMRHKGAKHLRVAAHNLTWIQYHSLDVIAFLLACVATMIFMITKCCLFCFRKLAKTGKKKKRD

Liver microsome [7] = experiment: Drug metabolism in human liver microsomes assessed as drug glucuronidation per mg tissue in absence of BSA by LC-MS/MS method

For `CC1=NN(c2ccccc2)C(=O)C1` [EDARAVONE], the Drug metabolism [1] was “metabolite_detected”, the Drug metabolism [2] was “metabolite_detected” and the VmaxH (Liver microsome [3]) was 137.9 pmol/min/g. The VmaxL (Liver microsome [3]) was 4904 pmol/min/g, the VmaxH [4] was 696 pmol/min/g and the VmaxL [4] was 5265 pmol/min/g. For the same molecule, the Drug metabolism [5] was “metabolite_not_detected”, the Drug metabolism [6] was “metabolite_detected” and the VmaxH (Liver microsome [7]) was 309.4 pmol/min/g. The VmaxL (Liver microsome [7]) was 7429 pmol/min/g.
